Data from patent US10533231B2, “Artificial bioluminescent enzyme” (NATIONAL INSTITUTE OF ADVANCED INDUSTRIAL SCIENCE AND …, priority 2012, dated 2020).

Tests used:
[1] = system: artificial luciferase (ALuc); assay: Search for assay buffer compatible with C3 (Example 2-2); type: cell-based; conditions: C3 lysis; 8- and 16-minute point
Protocol: After 16-hour incubation in a CO2 incubator, 50 μL of a C3 solution was added to each well to allow for cell lysis for 20 minutes. Substrate-containing assay buffers shown in FIG. 24 were individually added simultaneously (50 μL each) to the lysate, and the relative luminescence intensities were immediately measured with an LAS-4000 (Fujifilm). After the substrate-containing assay buffers were further added, the luminescence at the 8- and 16-minute point was measured to examine the luminescence stability.

[2] = target: estrogen receptor (ER LBD) (Homo sapiens, UniProt P03372); conditions: 10^−5 M, 20 minutes, COS-7 cells with pSimer-r2, C16 one-shot buffer
[3] = target: T1, integrated-molecule-format bioluminescent probe with androgen receptor (Homo sapiens, UniProt P10275); assay: Effect of adding halogen ions, androgen probe (Example 2-5); type: cell-based; conditions: about 100 mM
T1 construct: an androgen receptor (AR LED) was inserted therebetween; expressed in transfected cells; host or cells: COS-7
T1 sequence (P10275 669-900 limits assumed): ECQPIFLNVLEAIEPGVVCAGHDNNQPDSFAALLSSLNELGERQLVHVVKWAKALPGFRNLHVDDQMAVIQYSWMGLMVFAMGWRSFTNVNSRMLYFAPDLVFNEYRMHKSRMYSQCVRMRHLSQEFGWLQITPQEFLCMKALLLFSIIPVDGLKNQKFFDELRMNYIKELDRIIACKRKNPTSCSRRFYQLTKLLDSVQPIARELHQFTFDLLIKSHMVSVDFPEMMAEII
Protocol: After 16-hour incubation in a CO2 incubator, 50 μL of a C3 solution was added to each well to allow for cell lysis for 20 minutes.

[4] = Luminescent capsule probe, luminescence stability and intensity (Example 1-7); type: cell-based; conditions: localized in the endoplasmic reticulum
Source text: A “luminescent capsule” probe containing the artificial luciferase (ALuc) of the present invention in its frame structure was developed (FIG. 7). The basic molecular structure of the luminescent capsule of the present invention comprises an extracellular secretion signal (SP), ALuc, a suitable cargo protein (peptide), and a membrane localization signal. Because of the SP, the probe is first transferred to the endoplasmic reticulum, and then transferred from the endoplasmic reticulum to the plasma membrane. This probe is designed to finally localize in the plasma membrane by the function of MLS (FIG. 7 AB).
The luminescent capsule has the ability to localize a fluorescence protein (mPlum), other luciferases (RLuc8.6-535), and a peptide (DEVD sequence, etc.) in the plasma membrane. […] The luminescent reaction speed of the luminescent capsule after substrate injection was faster than those of other molecules (FIG. 7D). Further, the luminescent capsule containing a […] (SEQ ID NO: 19) was confirmed to have a different luminescent reaction speed according to the presence or absence of a cell death-inducing chemical substance (STS) (FIG. 7E). The luminescence stability of the luminescent capsule was also confirmed by using a microplate reader for luminescence measurement (FIG. 7F).

COS-7 cells [5] = assay: Luminescence image of COS-7 cell lysate on microslide (Example 1-20); type: cell-based; conditions: Promega lysate and assay buffer
Protocol: (§1) Similarly, COS-7 cells were cultured in a microslide produced by ibidi. After the cells were raised to a certain level, the following genes were transferred to the cells in the channels. Channel group 1: pcDNA3.1 plasmid having a gene encoding Cypridina luciferase; Channel group 2: pcDNA3.1 plasmid having a gene encoding A16-KDEL; and Channel group 3: pcDNA3.1 plasmid having a gene encoding a luminescent capsule based on A16 (i.e., A16-MLS).
After gene transfer, culturing was performed for another 16 hours. 20 minutes before imaging, 40 μL of a lysate buffer produced by Promega was added, and the resultant was allowed to stand for 20 minutes. Further, a substrate-containing assay buffer produced by Promega was added to the medium of each channel, and the luminescence image obtained after the addition was measured using an LAS-4000 (FujiFilm).

COS-7 cells [6] = assay: Living cell imaging (Example 1-20); type: cell-based; conditions: HBSS buffer containing substrate
Protocol: as §1, with “First, COS-7” for “Similarly, COS-7”, “encoding a luminescent enzyme derived from Renilla reniformis (RLuc8.6-535);” for “encoding Cypridina luciferase;”, “on ALuc16” for “on A16”
After gene transfer, culturing was performed for another 16 hours. Immediately before imaging, the medium was substituted with an HBSS buffer containing a substrate, and the luminescence image obtained after the substitution was measured using an LAS-4000 (FujiFilm).

Sequence of estrogen receptor (ER LBD) (P03372 311-547 limits assumed, species assumed): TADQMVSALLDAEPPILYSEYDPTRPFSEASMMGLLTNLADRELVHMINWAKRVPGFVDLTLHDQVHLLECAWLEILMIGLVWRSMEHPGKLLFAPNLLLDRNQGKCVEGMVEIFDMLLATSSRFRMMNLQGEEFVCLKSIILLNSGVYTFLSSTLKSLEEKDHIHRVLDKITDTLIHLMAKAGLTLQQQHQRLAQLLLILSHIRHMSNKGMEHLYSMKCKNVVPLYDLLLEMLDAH

bovine serum albumin [BSA]
luminescence stability with assay buffer [1]: the luminescence intensity and luminescence stability were poor

4-hydroxytamoxifen [OHT]
luminescence higher than the background [2]: about 5 folds

[Br-].[K+] [KBr]
effect of halogen ion addition [3]: excellent results

B1: A16-KDEL: ALuc16 with KDEL, localized in the endoplasmic reticulum, SEQ ID NO: 18 (protein)
chain: MMGIKVLFALICFALVQANPTENKDDIDIVGVEGKFGTTDLETDLFTIVEDMNVISRDTDVDANRADRGRRGKLPGKKLPLEVLKELEANAQKAGCTRGCLICLSHIKCTAKMKKWLPGRCESWEGDKETGQGGIGEAIVDIPEIPGFKDLEPMEQFIAQVDLCVDCTTGCLKGLANVKCSDLLKKWLPSRCATFASKIQAQVDKIKGAGGSKDEL
modifications: KDEL ER retention signal; Synthetic KDEL-linked ALuc16
luminescence intensity [4]: poor luminescence intensity
luminescence of cell lysate (COS-7 cells [5]): strong luminescence
luminescence image of living cells (COS-7 cells [6]): strong luminescence image
